{"source": "ChEMBL document CHEMBL1122994", "about": "“Effect of structural modification of the hydantoin ring on anticonvulsant activity” (J Med Chem, 1985)", "key": {"Mus musculus [1]": {"test_system": "Mus musculus", "experiment": "Anticonvulsant activity was evaluated by maximal electroshock seizure (MES) test at dose 600 mg/kg; No activity", "format": "functional"}, "Mus musculus [2]": {"test_system": "Mus musculus", "experiment": "Anticonvulsant activity was evaluated by Neurologic toxicity (the rotarod test) at dose 600 mg/kg; No activity", "format": "functional"}, "Mus musculus [3]": {"test_system": "Mus musculus", "experiment": "Anticonvulsant activity was evaluated by subcutaneous pentylenetetrazole (Metrazol) (sc Met) seizure test at dose 600 mg/kg; No activity", "format": "functional"}, "Mus musculus [4]": {"test_system": "Mus musculus", "experiment": "Anticonvulsant activity was evaluated by subcutaneous pentylenetetrazole (Metrazol) (sc Met) seizure test at dose 600 mg/kg; 1=Noticeable activity", "format": "functional"}, "Mus musculus [5]": {"test_system": "Mus musculus", "experiment": "Anticonvulsant activity was evaluated by maximal electroshock seizure (MES) test at dose 300 mg/kg; 2=Noticeable activity", "format": "functional"}, "Mus musculus [6]": {"test_system": "Mus musculus", "experiment": "Anticonvulsant activity was evaluated by Neurologic toxicity (the rotarod test) at dose 600 mg/kg; 1=Noticeable activity", "format": "functional"}, "Mus musculus [7]": {"test_system": "Mus musculus", "experiment": "Anticonvulsant activity was evaluated by subcutaneous pentylenetetrazole (Metrazol) (sc Met) seizure test at dose 300 mg/kg; 2=Noticeable activity", "format": "functional"}, "Mus musculus [8]": {"test_system": "Mus musculus", "experiment": "Effective dose was evaluated by subcutaneous pentylenetetrazole (Metrazol) (sc Met) seizure test", "format": "functional"}, "Mus musculus [9]": {"test_system": "Mus musculus", "experiment": "Anticonvulsant activity was evaluated by Neurologic toxicity (the rotarod test) at dose 300 mg/kg; 2=Noticeable activity", "format": "functional"}, "[10]": {"experiment": "Toxic dose was evaluated by neurological toxicity (the rotarod test)", "format": "organism-based", "details": "mouse, in vivo"}, "Mus musculus [11]": {"organism": "Mus musculus", "experiment": "Effective dose was evaluated by maximal electroshock seizure (MES) test", "format": "functional"}, "Mus musculus [12]": {"test_system": "Mus musculus", "experiment": "Anticonvulsant activity was evaluated by maximal electroshock seizure (MES) test at dose 100 mg/kg; 3=Noticeable activity", "format": "functional"}, "Mus musculus [13]": {"test_system": "Mus musculus", "experiment": "Anticonvulsant activity was evaluated by maximal electroshock seizure (MES) test at dose 600 mg/kg; 1=Noticeable activity", "format": "functional"}}, "data": [{"smiles": "O=C1NC(c2ccccc2)C(=O)N1Cc1ccccc1", "note": "(configuration not stated)", "values": [{"measurement": "Activity", "setting": "Mus musculus [1]", "value": 0}, {"measurement": "Activity", "setting": "Mus musculus [2]", "value": 0}, {"measurement": "Activity", "setting": "Mus musculus [3]", "value": 0}]}, {"smiles": "CC1NC(=O)N(Cc2ccccc2)C1O", "note": "(configuration not stated)", "values": [{"measurement": "Activity", "setting": "Mus musculus [4]", "value": 1}, {"measurement": "Activity", "setting": "Mus musculus [5]", "value": 2}, {"measurement": "Activity", "setting": "Mus musculus [6]", "value": 1}]}, {"smiles": "O=C1NC(c2ccccc2)C(=O)N1c1ccccc1", "note": "(configuration not stated)", "values": [{"measurement": "Activity", "setting": "Mus musculus [1]", "value": 0}, {"measurement": "Activity", "setting": "Mus musculus [2]", "value": 0}, {"measurement": "Activity", "setting": "Mus musculus [3]", "value": 0}]}, {"smiles": "CN1C(=O)NC(c2ccccc2)C1O", "note": "(configuration not stated)", "values": [{"measurement": "Activity", "setting": "Mus musculus [4]", "value": 1}, {"measurement": "Activity", "setting": "Mus musculus [7]", "value": 2}, {"measurement": "Activity", "setting": "Mus musculus [2]", "value": 0}]}, {"smiles": "O=C1CNC(=O)N1Cc1ccccc1", "values": [{"measurement": "ED50", "setting": "Mus musculus [8]", "value": 114, "unit": "mg/kg"}, {"measurement": "Activity", "setting": "Mus musculus [9]", "value": 2}, {"measurement": "TD50", "setting": "[10]", "value": 224, "unit": "mg/kg"}, {"measurement": "Activity", "setting": "Mus musculus [7]", "value": 2}, {"measurement": "ED50", "setting": "Mus musculus [11]", "value": 65, "unit": "mg/kg"}, {"measurement": "Activity", "setting": "Mus musculus [12]", "value": 3}]}, {"smiles": "CC1(C)NC(=O)N(CCc2ccccc2)C1O", "note": "(configuration not stated)", "values": [{"measurement": "Activity", "setting": "Mus musculus [13]", "value": 1}, {"measurement": "Activity", "setting": "Mus musculus [4]", "value": 1}, {"measurement": "Activity", "setting": "Mus musculus [6]", "value": 1}]}, {"smiles": "Oc1nccn1-c1ccccc1", "values": [{"measurement": "ED50", "setting": "Mus musculus [8]", "value": 173, "unit": "mg/kg"}, {"measurement": "Activity", "setting": "Mus musculus [9]", "value": 2}, {"measurement": "TD50", "setting": "[10]", "value": 211, "unit": "mg/kg"}, {"measurement": "Activity", "setting": "Mus musculus [7]", "value": 2}, {"measurement": "ED50", "setting": "Mus musculus [11]", "value": 124, "unit": "mg/kg"}, {"measurement": "Activity", "setting": "Mus musculus [12]", "value": 3}]}, {"smiles": "CNC(C)CNCc1ccccc1", "note": "(configuration not stated)", "values": [{"measurement": "Activity", "setting": "Mus musculus [9]", "value": 2}, {"measurement": "Activity", "setting": "Mus musculus [1]", "value": 0}, {"measurement": "Activity", "setting": "Mus musculus [3]", "value": 0}]}, {"smiles": "CC1NC(=O)N(C)C1=O", "note": "(configuration not stated)", "values": [{"measurement": "Activity", "setting": "Mus musculus [1]", "value": 0}, {"measurement": "Activity", "setting": "Mus musculus [2]", "value": 0}, {"measurement": "Activity", "setting": "Mus musculus [3]", "value": 0}]}, {"smiles": "CC1C(=O)N(C)C(=O)N1C", "note": "(configuration not stated)", "values": [{"measurement": "Activity", "setting": "Mus musculus [1]", "value": 0}, {"measurement": "Activity", "setting": "Mus musculus [7]", "value": 2}, {"measurement": "Activity", "setting": "Mus musculus [2]", "value": 0}]}, {"smiles": "CC1NC(=O)N(C)C1O", "note": "(configuration not stated)", "values": [{"measurement": "Activity", "setting": "Mus musculus [1]", "value": 0}, {"measurement": "Activity", "setting": "Mus musculus [2]", "value": 0}, {"measurement": "Activity", "setting": "Mus musculus [3]", "value": 0}]}, {"smiles": "CN1CC(c2ccccc2)NC1=O", "note": "(configuration not stated)", "values": [{"measurement": "Activity", "setting": "Mus musculus [4]", "value": 1}, {"measurement": "Activity", "setting": "Mus musculus [9]", "value": 2}, {"measurement": "Activity", "setting": "Mus musculus [5]", "value": 2}]}, {"smiles": "Cc1cn(C)c(=O)n1C", "values": [{"measurement": "Activity", "setting": "Mus musculus [1]", "value": 0}, {"measurement": "Activity", "setting": "Mus musculus [2]", "value": 0}, {"measurement": "Activity", "setting": "Mus musculus [3]", "value": 0}]}, {"smiles": "NC(=O)NC(=O)Cc1ccccc1", "note": "[PHENACEMIDE]", "values": [{"measurement": "ED50", "setting": "Mus musculus [11]", "value": 87, "unit": "mg/kg"}]}, {"smiles": "CC1NC(=O)N(c2ccccc2)C1O", "note": "(configuration not stated)", "values": [{"measurement": "Activity", "setting": "Mus musculus [13]", "value": 1}, {"measurement": "Activity", "setting": "Mus musculus [4]", "value": 1}, {"measurement": "Activity", "setting": "Mus musculus [6]", "value": 1}]}, {"smiles": "CC1C(O)N(C)C(=O)N1C", "note": "(configuration not stated)", "values": [{"measurement": "Activity", "setting": "Mus musculus [1]", "value": 0}, {"measurement": "Activity", "setting": "Mus musculus [2]", "value": 0}, {"measurement": "Activity", "setting": "Mus musculus [3]", "value": 0}]}, {"smiles": "Cc1cn(C)c(O)n1", "values": [{"measurement": "Activity", "setting": "Mus musculus [1]", "value": 0}, {"measurement": "Activity", "setting": "Mus musculus [2]", "value": 0}, {"measurement": "Activity", "setting": "Mus musculus [3]", "value": 0}]}, {"smiles": "CC(=O)NC(C)C(=O)NCc1ccccc1", "note": "(configuration not stated)", "values": [{"measurement": "Activity", "setting": "Mus musculus [6]", "value": 1}, {"measurement": "ED50", "setting": "Mus musculus [11]", "value": 77, "unit": "mg/kg"}, {"measurement": "Activity", "setting": "Mus musculus [3]", "value": 0}, {"measurement": "Activity", "setting": "Mus musculus [12]", "value": 3}]}, {"smiles": "CC1(C)NC(=O)N2C=Cc3ccccc3C21", "note": "(configuration not stated)", "values": [{"measurement": "Activity", "setting": "Mus musculus [9]", "value": 2}, {"measurement": "Activity", "setting": "Mus musculus [5]", "value": 2}, {"measurement": "Activity", "setting": "Mus musculus [7]", "value": 2}]}, {"smiles": "COc1ccc2c(c1)CCCN1C(=O)NC(C)(C)C21", "note": "(configuration not stated)", "values": [{"measurement": "Activity", "setting": "Mus musculus [1]", "value": 0}, {"measurement": "Activity", "setting": "Mus musculus [2]", "value": 0}, {"measurement": "Activity", "setting": "Mus musculus [3]", "value": 0}]}, {"smiles": "O=C1NCC(O)N1Cc1ccccc1", "note": "(configuration not stated)", "values": [{"measurement": "Activity", "setting": "Mus musculus [13]", "value": 1}, {"measurement": "Activity", "setting": "Mus musculus [2]", "value": 0}, {"measurement": "Activity", "setting": "Mus musculus [3]", "value": 0}]}, {"smiles": "CNC(=O)C(N)c1ccccc1", "note": "(configuration not stated)", "values": [{"measurement": "Activity", "setting": "Mus musculus [1]", "value": 0}, {"measurement": "Activity", "setting": "Mus musculus [2]", "value": 0}, {"measurement": "Activity", "setting": "Mus musculus [3]", "value": 0}]}, {"smiles": "Oc1nc(-c2ccccc2)cn1-c1ccccc1", "values": [{"measurement": "Activity", "setting": "Mus musculus [1]", "value": 0}, {"measurement": "Activity", "setting": "Mus musculus [7]", "value": 2}, {"measurement": "Activity", "setting": "Mus musculus [2]", "value": 0}]}, {"smiles": "CNCC(NC)c1ccccc1", "note": "(configuration not stated)", "values": [{"measurement": "Activity", "setting": "Mus musculus [9]", "value": 2}, {"measurement": "Activity", "setting": "Mus musculus [1]", "value": 0}, {"measurement": "Activity", "setting": "Mus musculus [3]", "value": 0}]}, {"smiles": "Cc1cn(Cc2ccccc2)c(O)n1", "values": [{"measurement": "Activity", "setting": "Mus musculus [5]", "value": 2}, {"measurement": "TD50", "setting": "[10]", "value": 268, "unit": "mg/kg"}, {"measurement": "Activity", "setting": "Mus musculus [6]", "value": 1}, {"measurement": "Activity", "setting": "Mus musculus [7]", "value": 2}, {"measurement": "ED50", "setting": "Mus musculus [11]", "value": 90, "unit": "mg/kg"}]}]}
